In BindingDB's records for doi:10.1002/cbdv.201000242 (East China University of Science and Technology, 2011):

Experiments:
Experiment in all cases: Inhibitory Assay
Details in all cases: pH 6.5
[1] = target: T1, Tyrosine-protein phosphatase non-receptor type 2 (Homo sapiens, UniProt P17706)
T1 sequence (P17706 whole entry): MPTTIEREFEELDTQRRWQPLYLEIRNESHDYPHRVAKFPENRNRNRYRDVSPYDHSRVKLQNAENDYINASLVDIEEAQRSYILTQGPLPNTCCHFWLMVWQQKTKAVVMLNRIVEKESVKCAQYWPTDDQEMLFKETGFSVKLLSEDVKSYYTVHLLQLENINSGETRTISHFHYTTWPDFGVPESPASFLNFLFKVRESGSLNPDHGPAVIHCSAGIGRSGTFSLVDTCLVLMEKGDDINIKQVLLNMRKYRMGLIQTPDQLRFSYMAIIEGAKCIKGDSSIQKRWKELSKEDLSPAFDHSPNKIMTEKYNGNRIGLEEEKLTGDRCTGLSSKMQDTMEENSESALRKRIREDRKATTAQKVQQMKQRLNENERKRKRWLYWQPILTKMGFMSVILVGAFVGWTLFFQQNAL
Procedure: (§1) Enzymatic activity of enzyme was evaluated using pNPP assay. Briefly, a reaction mixture (100 µL) containing 50 mM MOPS (pH 6.5), 2 mM pNPP and recombinant enzymes was monitored at 405 nm for 2 min at 30 °C.

[2] = target: T2, Tyrosine-protein phosphatase non-receptor type 1 (Homo sapiens, UniProt P18031)
T2 sequence (P18031 whole entry): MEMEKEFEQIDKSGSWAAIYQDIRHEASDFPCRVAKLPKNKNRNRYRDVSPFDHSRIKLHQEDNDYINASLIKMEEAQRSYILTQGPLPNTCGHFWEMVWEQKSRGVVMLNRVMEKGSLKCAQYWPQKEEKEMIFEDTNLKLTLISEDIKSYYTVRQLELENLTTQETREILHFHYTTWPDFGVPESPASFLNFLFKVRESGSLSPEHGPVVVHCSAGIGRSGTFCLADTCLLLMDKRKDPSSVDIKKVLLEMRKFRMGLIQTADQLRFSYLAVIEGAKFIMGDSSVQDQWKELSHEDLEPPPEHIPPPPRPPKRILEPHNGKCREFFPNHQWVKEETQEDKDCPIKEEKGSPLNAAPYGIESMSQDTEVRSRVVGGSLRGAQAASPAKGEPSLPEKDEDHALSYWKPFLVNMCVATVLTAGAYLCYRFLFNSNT
Procedure: as §1

[3] = target: Tyrosine-protein phosphatase non-receptor type 6 (Homo sapiens, UniProt P29350)
Procedure: as §1

[4] = target: T3, Tyrosine-protein phosphatase non-receptor type 11 (Homo sapiens, UniProt Q06124)
T3 sequence (Q06124 whole entry): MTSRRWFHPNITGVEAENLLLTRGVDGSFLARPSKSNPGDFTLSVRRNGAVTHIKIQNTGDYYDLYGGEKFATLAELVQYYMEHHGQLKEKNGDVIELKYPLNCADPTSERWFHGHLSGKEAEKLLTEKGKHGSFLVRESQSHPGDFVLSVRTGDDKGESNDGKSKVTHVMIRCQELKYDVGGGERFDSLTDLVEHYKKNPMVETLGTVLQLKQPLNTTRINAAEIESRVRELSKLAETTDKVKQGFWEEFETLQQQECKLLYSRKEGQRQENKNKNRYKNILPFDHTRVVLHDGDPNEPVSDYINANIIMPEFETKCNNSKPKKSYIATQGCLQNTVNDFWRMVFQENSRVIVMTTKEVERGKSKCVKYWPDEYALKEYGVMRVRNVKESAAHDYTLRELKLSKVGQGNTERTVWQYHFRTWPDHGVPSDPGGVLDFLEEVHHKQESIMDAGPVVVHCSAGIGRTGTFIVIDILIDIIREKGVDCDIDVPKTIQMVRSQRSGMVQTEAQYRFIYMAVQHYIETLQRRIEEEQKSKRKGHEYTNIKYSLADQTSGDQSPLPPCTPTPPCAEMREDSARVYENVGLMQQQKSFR
Procedure: as §1

[5] = target: Receptor-type tyrosine-protein phosphatase F (Homo sapiens, UniProt P10586)
Procedure: as §1

Sequence of Tyrosine-protein phosphatase non-receptor type 6 (P29350 whole entry): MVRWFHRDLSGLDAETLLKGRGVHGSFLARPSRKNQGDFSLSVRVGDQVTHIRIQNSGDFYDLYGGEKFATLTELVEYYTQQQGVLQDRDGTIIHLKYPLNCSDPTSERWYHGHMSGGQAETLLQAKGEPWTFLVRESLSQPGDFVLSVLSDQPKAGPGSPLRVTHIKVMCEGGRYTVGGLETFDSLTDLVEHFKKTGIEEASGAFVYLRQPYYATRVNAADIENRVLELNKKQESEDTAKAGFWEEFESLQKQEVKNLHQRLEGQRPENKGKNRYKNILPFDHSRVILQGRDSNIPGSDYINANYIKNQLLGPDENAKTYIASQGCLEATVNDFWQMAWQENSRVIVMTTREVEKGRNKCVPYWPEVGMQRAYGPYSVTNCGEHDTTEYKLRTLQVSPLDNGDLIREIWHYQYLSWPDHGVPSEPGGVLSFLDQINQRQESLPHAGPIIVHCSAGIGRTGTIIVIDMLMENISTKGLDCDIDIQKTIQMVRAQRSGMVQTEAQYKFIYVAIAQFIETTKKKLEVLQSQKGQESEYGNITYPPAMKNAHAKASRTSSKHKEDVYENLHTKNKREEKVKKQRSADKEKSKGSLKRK
Sequence of Receptor-type tyrosine-protein phosphatase F (P10586 whole entry): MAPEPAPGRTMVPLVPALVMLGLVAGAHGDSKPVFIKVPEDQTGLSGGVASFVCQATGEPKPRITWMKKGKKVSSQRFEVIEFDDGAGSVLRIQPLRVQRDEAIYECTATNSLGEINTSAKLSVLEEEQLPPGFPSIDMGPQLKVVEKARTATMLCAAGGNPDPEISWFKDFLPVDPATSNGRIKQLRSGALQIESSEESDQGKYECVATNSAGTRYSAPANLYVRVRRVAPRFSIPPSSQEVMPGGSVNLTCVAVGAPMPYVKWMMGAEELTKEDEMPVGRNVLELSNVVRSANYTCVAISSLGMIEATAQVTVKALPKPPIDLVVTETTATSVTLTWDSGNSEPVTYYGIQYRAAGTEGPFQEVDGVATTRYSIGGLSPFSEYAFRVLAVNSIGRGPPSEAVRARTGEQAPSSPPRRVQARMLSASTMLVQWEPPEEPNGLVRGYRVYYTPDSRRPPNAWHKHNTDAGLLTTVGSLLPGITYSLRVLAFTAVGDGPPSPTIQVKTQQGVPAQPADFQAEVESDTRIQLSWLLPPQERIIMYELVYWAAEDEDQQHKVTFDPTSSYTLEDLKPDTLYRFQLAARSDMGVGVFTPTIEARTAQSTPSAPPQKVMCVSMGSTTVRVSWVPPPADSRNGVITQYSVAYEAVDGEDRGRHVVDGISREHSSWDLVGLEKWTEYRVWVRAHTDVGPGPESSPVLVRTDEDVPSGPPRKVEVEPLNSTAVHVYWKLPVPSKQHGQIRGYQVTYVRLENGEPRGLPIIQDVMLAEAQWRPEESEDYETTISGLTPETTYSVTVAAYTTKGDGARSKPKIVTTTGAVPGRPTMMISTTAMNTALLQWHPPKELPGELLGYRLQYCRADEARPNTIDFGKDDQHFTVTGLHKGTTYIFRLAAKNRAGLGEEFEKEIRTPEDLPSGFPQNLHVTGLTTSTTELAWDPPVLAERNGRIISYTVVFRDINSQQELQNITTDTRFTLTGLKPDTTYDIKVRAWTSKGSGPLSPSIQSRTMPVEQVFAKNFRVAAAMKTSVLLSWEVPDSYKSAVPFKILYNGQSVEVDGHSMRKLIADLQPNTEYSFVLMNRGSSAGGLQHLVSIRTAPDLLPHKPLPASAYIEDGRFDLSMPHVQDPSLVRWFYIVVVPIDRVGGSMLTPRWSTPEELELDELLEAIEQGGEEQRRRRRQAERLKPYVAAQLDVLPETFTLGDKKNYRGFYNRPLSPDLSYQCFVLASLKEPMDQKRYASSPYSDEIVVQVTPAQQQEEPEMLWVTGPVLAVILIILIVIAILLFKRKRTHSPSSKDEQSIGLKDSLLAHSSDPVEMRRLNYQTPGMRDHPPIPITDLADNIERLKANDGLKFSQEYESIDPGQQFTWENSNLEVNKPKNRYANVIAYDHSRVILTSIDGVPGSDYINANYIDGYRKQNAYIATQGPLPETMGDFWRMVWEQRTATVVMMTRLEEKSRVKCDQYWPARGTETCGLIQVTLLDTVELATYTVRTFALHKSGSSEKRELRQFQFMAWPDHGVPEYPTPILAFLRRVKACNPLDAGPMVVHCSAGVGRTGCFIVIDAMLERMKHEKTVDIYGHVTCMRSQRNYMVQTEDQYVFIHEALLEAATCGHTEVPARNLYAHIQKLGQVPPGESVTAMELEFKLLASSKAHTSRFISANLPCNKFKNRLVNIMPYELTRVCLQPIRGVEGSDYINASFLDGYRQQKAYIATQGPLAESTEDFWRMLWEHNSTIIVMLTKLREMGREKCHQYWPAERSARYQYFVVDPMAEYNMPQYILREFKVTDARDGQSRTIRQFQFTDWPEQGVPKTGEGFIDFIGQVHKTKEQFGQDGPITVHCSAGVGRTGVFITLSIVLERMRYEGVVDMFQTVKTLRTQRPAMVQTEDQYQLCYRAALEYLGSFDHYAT

SMILES	IC50 [1] [µM]	IC50 [2] [µM]	IC50 [3] [µM]	IC50 [4] [µM]	IC50 [5] [µM]
CC(=O)OC[C@H]1O[C@H](n2cc(Cn3cnc4c(Cl)nc(N)nc43)nn2)[C@H](OC(C)=O)[C@@H](OC(C)=O)[C@@H]1OC(C)=O [2-Amino-6-chloro-9-{[1-(2,3,4,6-tetra-O-acetyl-b-d-glucopyranosyl)-1H-1,2,3-triazol-4-yl]methyl}-9H-purine (7)]	> 80	> 80	> 80	> 80	> 80
CO[C@H]1O[C@H](Cn2cc(CNc3nc(Cl)c4ncn(Cc5cn(C[C@H]6O[C@H](OC)[C@H](OCc7ccccc7)[C@@H](OCc7ccccc7)[C@H]6OCc6ccccc6)nn5)c4n3)nn2)[C@H](OCc2ccccc2)[C@H](OCc2ccccc2)[C@H]1OCc1ccccc1 [6-Chloro-N,9-bis[(1-{[(2R,3S,4S,5R,6S)-3,4,5-tris(benzyloxy)-tetrahydro-6-methoxy-2H-pyran-2-yl]methyl}-1H-1,2,3-triazol-4-yl)methyl]-9H-purin-2-amine (14)]	18	3.2	> 80	> 80	> 80
CC(=O)OC[C@H]1O[C@H](n2cc(CNc3nc(Cl)c4ncn(Cc5cn([C@H]6O[C@H](COC(C)=O)[C@@H](OC(C)=O)[C@H](OC(C)=O)[C@H]6OC(C)=O)nn5)c4n3)nn2)[C@H](OC(C)=O)[C@@H](OC(C)=O)[C@@H]1OC(C)=O [6-Chloro-9-{[1-(2,3,4,6-tetra-O-acetyl-b-d-glucopyranosyl)-1H-1,2,3-triazol-4-yl]methyl}-2-({[1-(2,3,4,6-tetra-O-acetyl-b-d-glucopyranosyl)-1H-1,2,3-triazol-4-yl]methyl}amino)-9H-purine (8)]	> 80	> 80	> 80	> 80	> 80
COc1nc(N)nc2c1ncn2Cc1cn(C[C@H]2O[C@H](OC)[C@H](OCc3ccccc3)[C@@H](OCc3ccccc3)[C@@H]2OCc2ccccc2)nn1 [Methyl 6-{4-[(2-Amino-6-methoxy-9H-purin-9-yl)methyl]-1H-1,2,3-triazol-1-yl}-2,3,4-tri-O-benzyl-6-deoxy-a-d-glucopyranoside (11)]	> 80	> 80	> 80	> 80	> 80
CO[C@H]1O[C@H](Cn2cc(CNc3nc(Cl)c4ncn(Cc5cn(C[C@H]6O[C@H](OC)[C@H](OCc7ccccc7)[C@@H](OCc7ccccc7)[C@@H]6OCc6ccccc6)nn5)c4n3)nn2)[C@@H](OCc2ccccc2)[C@H](OCc2ccccc2)[C@H]1OCc1ccccc1 [6-Chloro-N,9-bis[(1-{[(2R,3R,4S,5R,6S)-3,4,5-tris(benzyloxy)-tetrahydro-6-methoxy-2H-pyran-2-yl]methyl}-1H-1,2,3-triazol-4-yl)methyl]-9H-purin-2-amine (13)]	11	2.2	> 80	> 80	> 80
C#CCn1cnc2c(Cl)nc(N)nc21 [6-Chloro-9-(prop-2-yn-1-yl)-9H-purin-2-amine (2)]	> 80	232	> 80	> 80	> 80
COc1nc(NCc2cn(C[C@H]3O[C@H](OC)[C@H](OCc4ccccc4)[C@@H](OCc4ccccc4)[C@@H]3OCc3ccccc3)nn2)nc2c1ncn2Cc1cn(C[C@H]2O[C@H](OC)[C@H](OCc3ccccc3)[C@@H](OCc3ccccc3)[C@@H]2OCc2ccccc2)nn1 [6-Methoxy-N,9-bis[(1-{[(2R,3R,4S,5R,6S)-3,4,5-tris(benzyloxy)-tetrahydro-6-methoxy-2H-pyran-2-yl]methyl}-1H-1,2,3-triazol-4-yl)methyl]-9H-purin-2-amine (15)]	16.2	7.9	> 80	> 80	> 80
COc1nc(N)nc2c1ncn2Cc1cn(C[C@H]2O[C@H](OC)[C@H](OCc3ccccc3)[C@@H](OCc3ccccc3)[C@H]2OCc2ccccc2)nn1 [Methyl 6-{4-[(2-Amino-6-methoxy-9H-purin-9-yl)methyl]-1H-1,2,3-triazol-1-yl}-2,3,4-tri-O-benzyl-6-deoxy-a-d-galactopyranoside (12)]	> 80	> 80	> 80	> 80	> 80
COc1nc(NCc2cn(C[C@H]3O[C@H](OC)[C@H](OCc4ccccc4)[C@@H](OCc4ccccc4)[C@H]3OCc3ccccc3)nn2)nc2c1ncn2Cc1cn(C[C@H]2O[C@H](OC)[C@H](OCc3ccccc3)[C@@H](OCc3ccccc3)[C@H]2OCc2ccccc2)nn1 [6-Methoxy-N,9-bis[ (1-{[(2R,3S,4S,5R,6S)-3,4,5-tris(benzyloxy)-tetrahydro-6-methoxy-2H-pyran-2-yl]methyl}-1H-1,2,3-triazol-4-yl)methyl]-9H-purin-2-amine (16)]	2.9	1.5	24.9	35.7	> 80
CO[C@H]1O[C@H](Cn2cc(Cn3cnc4c(Cl)nc(N)nc43)nn2)[C@H](OCc2ccccc2)[C@H](OCc2ccccc2)[C@H]1OCc1ccccc1 [Methyl 6-{4-[(2-Amino-6-chloro-9H-purin-9-yl)methyl]-1H-1,2,3-triazol-1-yl}-2,3,4-tri-O-benzyl-6-deoxy-a-d-galactopyranoside (10)]	53.6	11.1	> 80	> 80	> 80
CO[C@H]1O[C@H](Cn2cc(Cn3cnc4c(Cl)nc(N)nc43)nn2)[C@@H](OCc2ccccc2)[C@H](OCc2ccccc2)[C@H]1OCc1ccccc1 [Methyl 6-{4-[(2-Amino-6-chloro-9H-purin-9-yl)methyl]-1H-1,2,3-triazol-1-yl}-2,3,4-tri-O-benzyl-6-deoxy-a-d-glucopyranoside (9)]	29.9	7.2	> 80	> 80	> 80
C#CCNc1nc(Cl)c2ncn(CC#C)c2n1 [6-Chloro-N,9-di(prop-2-yn-1-yl)-9H-purin-2-amine (3)]	> 80	75.7	> 80	> 80	> 80
